Common to all, as to format: cell-based
In experiment [1] the target is T1, Glucocorticoid receptor (Rattus norvegicus, UniProt P06536).
T1 sequence (P06536 whole entry): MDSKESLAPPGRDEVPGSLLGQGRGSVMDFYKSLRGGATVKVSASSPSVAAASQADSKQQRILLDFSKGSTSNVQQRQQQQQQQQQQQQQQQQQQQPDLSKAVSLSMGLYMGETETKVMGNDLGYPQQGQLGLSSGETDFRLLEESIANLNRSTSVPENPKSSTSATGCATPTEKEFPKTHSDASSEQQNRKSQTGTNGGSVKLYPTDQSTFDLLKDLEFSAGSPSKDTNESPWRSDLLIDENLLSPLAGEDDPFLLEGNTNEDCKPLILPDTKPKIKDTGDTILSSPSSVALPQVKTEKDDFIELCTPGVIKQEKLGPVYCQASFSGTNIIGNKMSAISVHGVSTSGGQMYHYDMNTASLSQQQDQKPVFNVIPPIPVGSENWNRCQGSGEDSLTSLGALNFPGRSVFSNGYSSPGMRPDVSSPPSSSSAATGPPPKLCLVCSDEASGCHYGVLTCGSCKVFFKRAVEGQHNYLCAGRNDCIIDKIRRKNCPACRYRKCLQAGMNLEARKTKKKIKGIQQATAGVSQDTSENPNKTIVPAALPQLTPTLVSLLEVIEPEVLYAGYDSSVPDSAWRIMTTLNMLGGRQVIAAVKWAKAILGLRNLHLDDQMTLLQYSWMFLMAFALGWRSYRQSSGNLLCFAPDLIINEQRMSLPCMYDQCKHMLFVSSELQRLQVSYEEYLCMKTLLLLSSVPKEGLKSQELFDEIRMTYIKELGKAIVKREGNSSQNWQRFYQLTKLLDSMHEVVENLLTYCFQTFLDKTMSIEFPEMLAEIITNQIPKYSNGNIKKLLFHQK
The experiment in a line: Agonist activity at glucocorticoid receptor in rat INS-1 832/13 cells transfected with CCL2-promoter luciferase plasmid construct assessed as reduction in IL-1 beta induced inflammation by luciferase reporter gene assay. (A reporter such as luciferase makes a cellular process visible.)

For experiment [2], the target named is T1, Glucocorticoid receptor. The experiment in a line: Agonist activity at glucocorticoid receptor in rat INS-1 832/13 cells transfected with 3XGRE-promoter luciferase plasmid construct assessed as induction of receptor transactivation by luciferase reporter gene assay.
The target in experiment [3] is T2, Glucocorticoid receptor (Rattus norvegicus) (UniProt P06536).
T2 sequence (whole entry): T1 sequence (P06536 whole entry)
The experiment in a line: Agonist activity at glucocorticoid receptor in rat INS-1 832/13 cells assessed as inhibition of glucose-stimulated insulin secretion at 100 nM incubated for 18 hrs by ELISA. Background: In an ELISA, binding on a coated surface is turned into a signal by an enzyme label.

The record followed here is ChEMBL document CHEMBL4837265 (ACS Med Chem Lett, 2021).

Calls of active or inactive are those of the source. The rule behind the calls is not given here.

For the molecule `COc1cc([C@H](O)[C@H]2CCCC3=Cc4c(cnn4-c4ccc(C)cc4)C[C@@]32C)cc(F)c1F`, the IC50 on Glucocorticoid receptor [1] was 158 nM. Moreover, at Glucocorticoid receptor [2], the EC50 is 100000 nM.

`COc1cc([C@@](C)(O)[C@H]2CCCC3=Cc4c(cnn4-c4ccc(F)cc4)C[C@@]32C)cc(F)c1F`: the IC50 on Glucocorticoid receptor [1] is 2 nM. The concentration for a half-maximal effect (EC50) on Glucocorticoid receptor [2] is 6.31 nM.

In the case of `Cc1ccc(-n2ncc3c2C=C2CCC[C@H](C(C)(O)c4ccccc4)[C@@]2(C)C3)cc1` (single isomer, unassigned), the IC50 at Glucocorticoid receptor [1] is 31.6 nM. Moreover, the EC50 on Glucocorticoid receptor [2] is 1260 nM.

In the case of `C[C@]12Cc3cnn(-c4ccc(F)cc4)c3C=C1CCC[C@@H]2[C@@H](O)c1ccccc1`, the 50% inhibitory concentration (IC50) at Glucocorticoid receptor [1] was 39.8 nM. Also, the 50% effective concentration (EC50) on Glucocorticoid receptor [2] was 100 nM. In addition, in experiment [3], the inhibition result is “inactive”.

Regarding `COc1ccc(-n2ncc3c2C=C2CCC[C@H](C(C)(O)c4cc(F)c(F)c(OC)c4)[C@@]2(C)C3)cc1` (single isomer, unassigned), the IC50 at Glucocorticoid receptor [1] was 1260 nM. For the same molecule, the EC50 on Glucocorticoid receptor [2] was 10000 nM.

Turning to `COc1cc([C@H](O)[C@H]2CCCC3=Cc4c(cnn4-c4ccc(F)cc4)C[C@@]32C)cc(F)c1F`, on Glucocorticoid receptor [1], the IC50 is 15.8 nM. The EC50 on Glucocorticoid receptor [2] was 63.1 nM.

As to `COc1ccc(-n2ncc3c2C=C2CCC[C@H](C(C)(C)O)[C@@]2(C)C3)cc1`, the IC50 on Glucocorticoid receptor [1] was 2510 nM. For the same molecule, the concentration for a half-maximal effect (EC50) at Glucocorticoid receptor [2] was 79.4 nM.

As to `C[C@H](O)[C@H]1CCCC2=Cc3c(cnn3-c3ccc(F)cc3)C[C@@]21C`, the 50% inhibitory concentration (IC50) on Glucocorticoid receptor [1] is 6.31 nM. Further, on Glucocorticoid receptor [2], the half-maximal effective concentration (EC50) is 63.1 nM. Also, the inhibition entry in experiment [3] is “inactive”.

For `COc1ccc(-n2ncc3c2C=C2CCC[C@H]([C@@H](O)c4ccsc4)[C@@]2(C)C3)cc1`, the IC50 on Glucocorticoid receptor [1] is 501 nM. For the same molecule, on Glucocorticoid receptor [2], the concentration giving a half-maximal response (EC50) is 10000 nM.

With `Cc1ccc(-n2ncc3c2C=C2CCC[C@H]([C@@H](O)c4ccc(F)cc4)[C@@]2(C)C3)cc1`, at Glucocorticoid receptor [1], the IC50 was 251 nM. For the same molecule, the EC50 at Glucocorticoid receptor [2] is 31600 nM.

On to `COc1ccc(-n2ncc3c2C=C2CCC[C@H](C(C)(O)c4ccccc4)[C@@]2(C)C3)cc1` (single isomer, unassigned), for which the IC50 on Glucocorticoid receptor [1] is 501 nM. Besides, at Glucocorticoid receptor [2], the EC50 is 5010 nM.

With `CC(C)(C)[C@H](O)[C@H]1CCCC2=Cc3c(cnn3-c3ccc(F)cc3)C[C@@]21C`, the half-maximal inhibitory concentration (IC50) on Glucocorticoid receptor [1] is 0.251 nM. Moreover, on Glucocorticoid receptor [2], the EC50 was 794 nM.

With `COc1ccc(-n2ncc3c2C=C2CCC[C@H]([C@@H](O)c4ccccc4)[C@@]2(C)C3)cc1`, the IC50 on Glucocorticoid receptor [1] is 1260 nM. Also, the EC50 on Glucocorticoid receptor [2] is 10000 nM.

On to `Cc1ccc(-n2ncc3c2C=C2CCC[C@H]([C@H](C)O)[C@@]2(C)C3)cc1`, for which the half-inhibitory concentration (IC50) on Glucocorticoid receptor [1] was 0.2 nM. Moreover, the 50% effective concentration (EC50) on Glucocorticoid receptor [2] is 1580 nM.

Consider `Cc1ccc(-n2ncc3c2C=C2CCC[C@H](C(C)(O)c4ccsc4)[C@@]2(C)C3)cc1` (single isomer, unassigned), for which the 50% inhibitory concentration (IC50) at Glucocorticoid receptor [1] was 100 nM. The EC50 on Glucocorticoid receptor [2] is 1580 nM.

As to `C[C@]12Cc3cnn(-c4ccc(F)cc4)c3C=C1CCC[C@@H]2[C@](C)(O)c1ccc(F)cc1`, the IC50 on Glucocorticoid receptor [1] was 5.01 nM. The EC50 at Glucocorticoid receptor [2] was 15.8 nM.

In the case of `C[C@]12Cc3cnn(-c4ccc(F)cc4)c3C=C1CCC[C@@H]2[C@](C)(O)c1ccccc1`, at Glucocorticoid receptor [1], the 50% inhibitory concentration (IC50) was 7.94 nM. Moreover, the EC50 on Glucocorticoid receptor [2] is 3.98 nM. Moreover, the inhibition result in experiment [3] (filed as agonist) was “Active”.

For `Cc1ccc(-n2ncc3c2C=C2CCC[C@H](C(C)(O)c4ccc(F)cc4)[C@@]2(C)C3)cc1` (single isomer, unassigned), on Glucocorticoid receptor [1], the IC50 is 631 nM. Further, the EC50 at Glucocorticoid receptor [2] is 316 nM.

For the molecule `Cc1ccc(-n2ncc3c2C=C2CCC[C@H]([C@@H](O)c4ccsc4)[C@@]2(C)C3)cc1`, on Glucocorticoid receptor [1], the half-maximal inhibitory concentration (IC50) was 39.8 nM. The EC50 on Glucocorticoid receptor [2] is 10000 nM.

For the molecule `C[C@]12Cc3cnn(-c4ccc(F)cc4)c3C=C1CCC[C@@H]2[C@@H](O)CC#N`, the IC50 at Glucocorticoid receptor [1] was 1580 nM. Also, on Glucocorticoid receptor [2], the EC50 is 2510 nM.

For the molecule `COc1ccc(-n2ncc3c2C=C2CCC[C@H]([C@@H](O)c4ccc(F)cc4)[C@@]2(C)C3)cc1`, at Glucocorticoid receptor [1], the IC50 is 79.4 nM. The EC50 at Glucocorticoid receptor [2] is 15800 nM.

Regarding `Cc1ccc(-n2ncc3c2C=C2CCC[C@H]([C@@H](O)c4ccccc4)[C@@]2(C)C3)cc1`, the IC50 at Glucocorticoid receptor [1] was 398 nM. For the same molecule, the half-maximal effective concentration (EC50) on Glucocorticoid receptor [2] was 10000 nM.

As for `COc1ccc(-n2ncc3c2C=C2CCC[C@H](C(C)(O)c4ccc(F)cc4)[C@@]2(C)C3)cc1` (single isomer, unassigned), the IC50 on Glucocorticoid receptor [1] is 251 nM. Further, at Glucocorticoid receptor [2], the EC50 was 126 nM.

Turning to `COc1ccc(-n2ncc3c2C=C2CCC[C@H](C(C)(O)c4ccsc4)[C@@]2(C)C3)cc1` (single isomer, unassigned), on Glucocorticoid receptor [1], the IC50 is 1580 nM. Also, the concentration for a half-maximal effect (EC50) at Glucocorticoid receptor [2] was 10000 nM.

As for `Cc1ccc(-n2ncc3c2C=C2CCC[C@H](C(C)(C)O)[C@@]2(C)C3)cc1`, at Glucocorticoid receptor [1], the concentration for half-maximal inhibition (IC50) is 63.1 nM. Also, the concentration giving a half-maximal response (EC50) at Glucocorticoid receptor [2] was 0.398 nM.

For `C[C@]12Cc3cnn(-c4ccc(F)cc4)c3C=C1CCC[C@@H]2[C@@H](O)c1ccsc1`, the IC50 on Glucocorticoid receptor [1] is 5.01 nM. Besides, the EC50 at Glucocorticoid receptor [2] is 126 nM.

For `COc1ccc(-n2ncc3c2C=C2CCC[C@H]([C@H](C)O)[C@@]2(C)C3)cc1`, the IC50 on Glucocorticoid receptor [1] was 0.158 nM. The concentration for a half-maximal effect (EC50) on Glucocorticoid receptor [2] is 251 nM.

As to `CC(C)(O)[C@H]1CCCC2=Cc3c(cnn3-c3ccc(F)cc3)C[C@@]21C`, at Glucocorticoid receptor [1], the IC50 is 39.8 nM. Further, the half-maximal effective concentration (EC50) at Glucocorticoid receptor [2] was 63.1 nM. In addition, the inhibition result in experiment [3] is “inactive”.

The term IC50 denotes the concentration at which inhibition is half-maximal. Broadly, the EC50 is the concentration that produces a half-maximal response.
